Source: PubChem BioAssay AID2060601 (Molecular Pharmacology Branch, DTP, NCI, 2025)

Test system: 874868-142-R-J2-PDC complex spheroids, growth % test/control
Test: Anticancer human tumor 874868-142-R-J2-PDC patient-derived head and neck squamous carcinoma cell line growth inhibition [CLK]
Details: for IC50: curve of first compound; for viability, T/C: stronger effect = lower value
How it was run: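 Multi-cell-type spheroids combined patient-derived tumor cells with HUVEC endothelial cells and human mesenchymal stem cells. Paired agents were dosed in half-log steps down from about clinical Cmax, or from 10 microM where Cmax was unknown.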

[1] = second compound 0.0316 µM, first compound 0.0316 µM
[2] = second compound 0.0316 µM, first compound 0.1 µM
[3] = second compound 0.0316 µM, first compound 0.316 µM
[4] = second compound 0.0316 µM, first compound 1 µM
[5] = second compound 0.0316 µM, first compound 3.16 µM
[6] = second compound 0.0316 µM, first compound 10 µM
[7] = second compound 0.1 µM, first compound 0.0316 µM
[8] = second compound 0.1 µM, first compound 0.1 µM
[9] = second compound 0.1 µM, first compound 0.316 µM
[10] = second compound 0.1 µM, first compound 1 µM
[11] = second compound 0.1 µM, first compound 3.16 µM
[12] = second compound 0.1 µM, first compound 10 µM
[13] = second compound 0.316 µM, first compound 0.0316 µM
[14] = second compound 0.316 µM, first compound 0.1 µM
[15] = second compound 0.316 µM, first compound 0.316 µM
[16] = second compound 0.316 µM, first compound 1 µM
[17] = second compound 0.316 µM, first compound 3.16 µM
[18] = second compound 0.316 µM, first compound 10 µM
[19] = second compound 1 µM, first compound 0.0316 µM
[20] = second compound 1 µM, first compound 0.1 µM
[21] = second compound 1 µM, first compound 0.316 µM
[22] = second compound 1 µM, first compound 1 µM
[23] = second compound 1 µM, first compound 3.16 µM
[24] = second compound 1 µM, first compound 10 µM
[25] = second compound 3.16 µM, first compound 0.0316 µM
[26] = second compound 3.16 µM, first compound 0.1 µM
[27] = second compound 3.16 µM, first compound 0.316 µM
[28] = second compound 3.16 µM, first compound 1 µM
[29] = second compound 3.16 µM, first compound 3.16 µM
[30] = second compound 3.16 µM, first compound 10 µM
[31] = second compound 10 µM, first compound 0.0316 µM
[32] = second compound 10 µM, first compound 0.1 µM
[33] = second compound 10 µM, first compound 0.316 µM
[34] = second compound 10 µM, first compound 1 µM
[35] = second compound 10 µM, first compound 3.16 µM
[36] = second compound 10 µM, first compound 10 µM
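Further: spheroids exposed to the compounds for 7 days.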
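Wherever viability, T/C is given: 100% = DMSO vehicle control viability.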

CC(=O)O[C@H]1C(=O)[C@@]2(C)[C@H]([C@H](OC(=O)c3ccccc3)[C@]3(O)C[C@H](OC(=O)[C@H](O)[C@@H](NC(=O)c4ccccc4)c4ccccc4)C(C)=C1C3(C)C)[C@]1(OC(C)=O)CO[C@@H]1C[C@@H]2O + CN1CCN(c2cc(C(=O)Nc3cc4cc(-c5cnn(C)c5)ccc4cn3)ccn2)CC1
IC50 (second compound 0.0316 µM): < 31.6 nM | IC50 (second compound 0.1 µM): < 31.6 nM | IC50 (second compound 0.316 µM): < 31.6 nM | IC50 (second compound 1 µM): < 31.6 nM | IC50 (second compound 3.16 µM): < 31.6 nM | IC50 (second compound 10 µM): < 31.6 nM | viability, T/C [1]: 26.6% | viability, T/C [2]: 18.9% | viability, T/C [3]: 19.1% | viability, T/C [4]: 22% | viability, T/C [5]: 21.3% | viability, T/C [6]: 27.4% | viability, T/C [7]: 28.1% | viability, T/C [8]: 19.6% | viability, T/C [9]: 20% | viability, T/C [10]: 18.1% | viability, T/C [11]: 14.7% | viability, T/C [12]: 27.9% | viability, T/C [13]: 13% | viability, T/C [14]: 15.6% | viability, T/C [15]: 15.3% | viability, T/C [16]: 9.43% | viability, T/C [17]: 17.7% | viability, T/C [18]: 17.3% | viability, T/C [19]: 0.22% | viability, T/C [20]: 0.23% | viability, T/C [21]: 0.5% | viability, T/C [22]: 0.59% | viability, T/C [23]: 0.23% | viability, T/C [24]: 0.27% | viability, T/C [25]: 0.16% | viability, T/C [26]: 0.16% | viability, T/C [27]: 2.82% | viability, T/C [28]: 0.21% | viability, T/C [29]: 0.18% | viability, T/C [30]: 0.15% | viability, T/C [31]: 0.12% | viability, T/C [32]: 0.18% | viability, T/C [33]: 1.66% | viability, T/C [34]: 0.18% | viability, T/C [35]: 2.53% | viability, T/C [36]: 1.6%

CCc1c2c(nc3ccc(O)cc13)-c1cc3c(c(=O)n1C2)COC(=O)[C@]3(O)CC + CN1CCN(c2cc(C(=O)Nc3cc4cc(-c5cnn(C)c5)ccc4cn3)ccn2)CC1
IC50 (second compound 0.0316 µM): < 3.16 nM | IC50 (second compound 0.1 µM): < 3.16 nM | IC50 (second compound 0.316 µM): < 3.16 nM | IC50 (second compound 1 µM): < 3.16 nM | IC50 (second compound 3.16 µM): < 3.16 nM | IC50 (second compound 10 µM): < 3.16 nM | viability, T/C (second compound 0.0316 µM, first compound 0.00316 µM): 40.3% | viability, T/C (second compound 0.0316 µM, first compound 0.01 µM): 37.1% | viability, T/C [1]: 26.8% | viability, T/C [2]: 16.6% | viability, T/C [3]: 7.13% | viability, T/C [4]: 1.61% | viability, T/C (second compound 0.1 µM, first compound 0.00316 µM): 31.4% | viability, T/C (second compound 0.1 µM, first compound 0.01 µM): 24.2% | viability, T/C [7]: 11.6% | viability, T/C [8]: 8.69% | viability, T/C [9]: 2.29% | viability, T/C [10]: 0.34% | viability, T/C (second compound 0.316 µM, first compound 0.00316 µM): 12.2% | viability, T/C (second compound 0.316 µM, first compound 0.01 µM): 7.89% | viability, T/C [13]: 5.11% | viability, T/C [14]: 1.25% | viability, T/C [15]: 0.46% | viability, T/C [16]: 0.22% | viability, T/C (second compound 1 µM, first compound 0.00316 µM): 0.28% | viability, T/C (second compound 1 µM, first compound 0.01 µM): 0.16% | viability, T/C [19]: 0.25% | viability, T/C [20]: 0.19% | viability, T/C [21]: 0.39% | viability, T/C [22]: 0.11% | viability, T/C (second compound 3.16 µM, first compound 0.00316 µM): 0.18% | viability, T/C (second compound 3.16 µM, first compound 0.01 µM): 0.16% | viability, T/C [25]: 0.32% | viability, T/C [26]: 0.27% | viability, T/C [27]: 0.19% | viability, T/C [28]: 0.11% | viability, T/C (second compound 10 µM, first compound 0.00316 µM): 0.07% | viability, T/C (second compound 10 µM, first compound 0.01 µM): 3.98% | viability, T/C [31]: 0.4% | viability, T/C [32]: 0.15% | viability, T/C [33]: 0.19% | viability, T/C [34]: 0.19%

COc1cccc2c1C(=O)c1c(O)c3c(c(O)c1C2=O)CC(O)(C(=O)CO)CC3OC1CC(N)C(O)C(C)O1 (stereo unspecified) + CN1CCN(c2cc(C(=O)Nc3cc4cc(-c5cnn(C)c5)ccc4cn3)ccn2)CC1
IC50 (second compound 0.0316 µM): 87.3 nM | IC50 (second compound 0.1 µM): 46.7 nM | IC50 (second compound 0.316 µM): < 31.6 nM | IC50 (second compound 1 µM): < 31.6 nM | IC50 (second compound 3.16 µM): < 31.6 nM | IC50 (second compound 10 µM): < 31.6 nM | viability, T/C [1]: 63.8% | viability, T/C [2]: 45.1% | viability, T/C [3]: 28.2% | viability, T/C [4]: 1.26% | viability, T/C [5]: 0.13% | viability, T/C [6]: 0.12% | viability, T/C [7]: 55.6% | viability, T/C [8]: 38.7% | viability, T/C [9]: 20.3% | viability, T/C [10]: 1.08% | viability, T/C [11]: 0.17% | viability, T/C [12]: 0.22% | viability, T/C [13]: 14.6% | viability, T/C [14]: 12.6% | viability, T/C [15]: 3.13% | viability, T/C [16]: 0.26% | viability, T/C [17]: 0.13% | viability, T/C [18]: 0.18% | viability, T/C [19]: 0.21% | viability, T/C [20]: 0.85% | viability, T/C [21]: 0.41% | viability, T/C [22]: 0.34% | viability, T/C [23]: 0.12% | viability, T/C [24]: 0.14% | viability, T/C [25]: 0.22% | viability, T/C [26]: 0.15% | viability, T/C [27]: 2.26% | viability, T/C [28]: 0.14% | viability, T/C [29]: 0.21% | viability, T/C [30]: 0.12% | viability, T/C [31]: 0.07% | viability, T/C [32]: 0.94% | viability, T/C [33]: 0.15% | viability, T/C [34]: 0.12% | viability, T/C [35]: 0.14% | viability, T/C [36]: 0.67%
